Holding throughout (assay type): cell-based
For test [1], the system named is S. aureus 29213. The test can be described thus: MIC by microdilution (NCCLS), S. aureus 29213. To be noted: Staphylococcus aureus, cation-adjusted Mueller-Hinton Broth, pH 7.2-7.3. As to the method:
(§1) These assays have been performed following the description given in “Methods for dilution Antimicrobial Susceptibility Tests for Bacteria that Grow Aerobically, 4th ed.; Approved standard: NCCLS Document M7-A4; National Committee for Clinical Laboratory Standards Villanova, Pa., USA, 1997”. Minimal inhibitory concentrations (MICs; mg/l) were determined in cation-adjusted Mueller-Hinton Broth (BBL) by a microdilution method following NCCLS guidelines (National Committee for Clinical Laboratory Standards. Methods for Dilution Antimicrobial Susceptibility). The pH of the test medium was 7.2-7.3.
(§2) All Examples were tested against several Gram positive and Gram negative bacteria.

For test [2], the system named is S. aureus A798. The test can be described thus: MIC by microdilution (NCCLS), S. aureus A798. To be noted: Staphylococcus aureus, cation-adjusted Mueller-Hinton Broth, pH 7.2-7.3. How it is done:
as §1, §2
In general terms: Broth dilution looks for growth in wells or tubes with falling amounts of substance.

Test [3] deals with E. faecalis 29212. The test can be described thus: MIC by microdilution (NCCLS), E. faecalis 29212. To be noted: Enterococcus faecalis, cation-adjusted Mueller-Hinton Broth, pH 7.2-7.3. As to the method: as §1, §2
Test [4] deals with E. faecium A949. Kind of test: MIC by microdilution (NCCLS), E. faecium A949. To be noted: Enterococcus faecium, cation-adjusted Mueller-Hinton Broth, pH 7.2-7.3. As to the method: as §1, §2
Test [5] relates to S. pneumoniae 49619. Kind of test: MIC by microdilution (NCCLS), S. pneumoniae 49619. To be noted: Streptococcus pneumoniae, cation-adjusted Mueller-Hinton Broth, pH 7.2-7.3. As to the method:
as §1, §2

Test [6] deals with H influenzae A921. Kind of test: MIC by microdilution (NCCLS), H influenzae A921. To be noted: cation-adjusted Mueller-Hinton Broth, pH 7.2-7.3. As to the method:
as §1, §2

The subject of test [7] is M. catarrhalis A894. The test can be described thus: MIC by microdilution (NCCLS), M. catarrhalis A894. To be noted: Moraxella catarrhalis, cation-adjusted Mueller-Hinton Broth, pH 7.2-7.3. As to the method:
as §1, §2

Test [8] relates to E. coli 25922. Kind of test: MIC by microdilution (NCCLS), E. coli 25922. To be noted: Escherichia coli, cation-adjusted Mueller-Hinton Broth, pH 7.2-7.3. As to the method:
as §1, §2

The test system of test [9] is P. aeruginosa 27853. Kind of test: MIC by microdilution (NCCLS), P. aeruginosa 27853. To be noted: Pseudomonas aeruginosa, cation-adjusted Mueller-Hinton Broth, pH 7.2-7.3. As to the method: as §1, §2

Molecules are shown by their SMILES. ≈ marks a conversion by molar mass, not a printed value. Some results are limits rather than exact numbers.

Take `Cc1cccc2sc(C(=O)[C@H]3CC[C@H](NCc4ccc5c(c4)NC(=O)CS5)CC3)nc12` [Example 4, 6-{[trans-4-(4-methyl-benzothiazole-2-carbonyl)-cyclohexylamino]-methyl}-4H-benzo[1,4]thiazin-3-one]: the MIC in [1] is 0.125 µg/mL (≈ 0.277 µM); in [2], 0.063 µg/mL (≈ 0.139 µM); in [3], 0.5 µg/mL (≈ 1.11 µM); in [4] it was 0.25 µg/mL (≈ 0.554 µM); in test [5], 1 µg/mL (≈ 2.21 µM); in test [6], 0.25 µg/mL (≈ 0.554 µM). For the same compound, the results for the MIC in [7], in test [8] and in [9] were at most 0.031 µg/mL, 1 µg/mL (≈ 2.21 µM) and 4 µg/mL (≈ 8.86 µM), respectively.
Consider `COc1cccc2sc(C(=O)[C@H]3CC[C@H](NCc4ccc5c(n4)NC(=O)CS5)CC3)nc12` [Example 23, 6-{[trans-4-(4-methoxy-benzothiazole-2-carbonyl)-cyclohexylamino]-methyl}-4H-pyrido[3,2-b][1,4]thiazin-3-one], for which the MIC came to 1 µg/mL (≈ 2.13 µM) in [1]; 0.5 µg/mL (≈ 1.07 µM) in test [2]; 8 µg/mL (≈ 17.1 µM) in test [3]; 8 µg/mL (≈ 17.1 µM) in test [4]; 4 µg/mL (≈ 8.54 µM) in [5]; 8 µg/mL (≈ 17.1 µM) in [6]. Also, the MIC in test [7] is 0.25 µg/mL (≈ 0.533 µM); in test [8], 16 µg/mL (≈ 34.1 µM); in test [9], over 16 µg/mL.
For `O=C1CSc2ccc(CNC3CCC(C(=O)c4nc5ccccc5s4)CC3)cc2N1` (stereo not drawn) [Example 1, 6-{[4-(benzothiazole-2-carbonyl)-cyclohexylamino]-methyl}-4H-benzo[1,4]thiazin-3-one], the MIC in test [1] is 0.25 µg/mL (≈ 0.571 µM); in test [2], 0.125 µg/mL (≈ 0.286 µM); in [3] it was 0.5 µg/mL (≈ 1.14 µM); in test [4] it was 1 µg/mL (≈ 2.29 µM); in test [5] it was 2 µg/mL (≈ 4.57 µM); in [6] it was 0.063 µg/mL (≈ 0.144 µM). Further, the MIC is at most 0.031 µg/mL in test [7], 0.5 µg/mL (≈ 1.14 µM) in [8] and 16 µg/mL (≈ 36.6 µM) in [9].
For the compound `COc1cccc2sc(C(=O)[C@@H]3CC[C@@H](NCc4ccc5c(n4)NC(=O)CS5)CO3)nc12` [Example 29, (3R,6S)-6-{[6-(4-methoxy-benzothiazole-2-carbonyl)-tetrahydro-pyran-3-ylamino]-methyl}-4H-pyrido[3,2-b][1,4]thiazin-3-one], the MIC in test [1] worked out at 1 µg/mL (≈ 2.13 µM); in [2], 2 µg/mL (≈ 4.25 µM); in [3], 2 µg/mL (≈ 4.25 µM); in test [4] it was 1 µg/mL (≈ 2.13 µM); in test [5] it was 4 µg/mL (≈ 8.5 µM); in [6] it was 2 µg/mL (≈ 4.25 µM). Also, the MIC was 0.125 µg/mL (≈ 0.266 µM) in test [7], 16 µg/mL (≈ 34 µM) in [8] and over 16 µg/mL in [9].
As to `COc1cccc2sc(C(=O)C3CCN(CC(=O)c4ccc5c(c4)NC(=O)CO5)CC3)nc12` [Example 34, 6-{2-[4-(4-methoxy-benzothiazole-2-carbonyl)-piperidin-1-yl]-acetyl}-4H-benzo[1,4]oxazin-3-one], the MIC in [1] was 1 µg/mL (≈ 2.15 µM); in [2], 2 µg/mL (≈ 4.3 µM); in test [3] it was 16 µg/mL (≈ 34.4 µM); in [4] it was 4 µg/mL (≈ 8.59 µM); in test [5], 16 µg/mL (≈ 34.4 µM); in test [6], 2 µg/mL (≈ 4.3 µM). Also, the values for the MIC in [7], in test [8] and in test [9] were 0.25 µg/mL (≈ 0.537 µM), 16 µg/mL (≈ 34.4 µM) and over 16 µg/mL, respectively.
Consider `COc1cccc2sc(O[C@H]3CC[C@H](NCc4ccc5c(c4)NC(=O)CS5)CC3)nc12` [Example 28, 6-{[trans-4-(4-methoxy-benzothiazol-2-yloxy)-cyclohexylamino]-methyl}-4H-benzo[1,4]thiazin-3-one], for which the MIC in [1] amounted to 8 µg/mL (≈ 17.6 µM); in test [2], 1 µg/mL (≈ 2.19 µM); in test [3], 16 µg/mL (≈ 35.1 µM); in test [4] it was 16 µg/mL (≈ 35.1 µM); in [5], 16 µg/mL (≈ 35.1 µM); in test [6] it was 16 µg/mL (≈ 35.1 µM). Besides, the MIC was 0.125 µg/mL (≈ 0.274 µM) in [7], 16 µg/mL (≈ 35.1 µM) in test [8] and over 16 µg/mL in test [9].
